Data as given in patent US20040067593A1, “Electron paramagnetic resonance method for diagnosis of active nephritis” (priority 2000, published 2004).

What was measured:
Solubility of spin trap = type: physicochemical
[1] = Effect of sulphite on the EPR signal of the DBNBS radical cation (DBNBS reacted with plasma or urine); design: species or system human
Experimental: The characteristic spectrum of DBNBS-SO3^●− was a 9 line signal with an aN=1.32 mT and aH=0.06 mT (FIG. 8). This was obtained by reacting DBNBS with hydrogen peroxide and horseradish peroxidase. The addition of 10 mM sulphite to the reaction mixture caused the signal to increase by over 100 fold in intensity. The signal could also be obtained by reacting DBNBS with sulphite alone. However, when the DBNBS was reacted with the plasma of patients with renal failure and the urine from a normal individual, only the 3 line signal with an aN=1.32 mT was seen (FIGS. 7 & 9, respectively). The hydrogen hyperfine splitting seen in the spectrum of DBNBS-SO3^●− was absent. […] Therefore, we confirmed that DBNBS-SO3^●− and the DBNBS radical cation generated by renal patients' plasma or normal urine were completely different radicals.
Addition of sulphite to the mixture of DBNBS and plasma or urine decreased the signal height of the DBNBS radical cation. This could affect the determination of the oxidant in biological samples if there was sulphite contamination in the DBNBS preparation or endogenous sulphite in the biological sample itself. Therefore the dose response effect on addition of sulphite to the reaction mixture was investigated. […]

Structure (SMILES)	solubility compared with DBNBS (Solubility of spin trap)	reduction in the signal height of the DBNBS radical cation ([1]; 0.08 mM of sulphite in the reaction mixture) [%]	reduction in the signal height of the DBNBS radical cation ([1]; final concentration of 0.4 mM sulphite in the reaction mixture) [%]
O=Nc1c(Cl)cc(S(=O)(=O)O)cc1Cl [DCNBS, 3,5-dichloro-4-nitrosobenzene sulphonate]	better solubility	–	–
O=S([O-])[O-].[K+].[K+] [sulphite, dipotassium sulphite]	–	1.4	6.1
